pIC50: −log10 of the molar value.
target: USP1 (construct USP1 (I-785, GG670, 671AA)/UAF1 (I-677)-Flag) (Homo sapiens (Human), UniProt O94782, G670A/G671A); test: Ubiquitin-Rhodamine 110 assay for USP1 activity; type: biochemical; conditions: USP1/UAF1 25 pM, Ub-Rh110 25 nM, 30 min preincubation
Summary of the method: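 Ub-Rh110 (25 nM, ≪Km) cleavage read at ex 485/em 535 in Tris pH 8.0, CaCl2, GSH, Prionex, Triton X-100. The screen used 10 µM compound, 100 pM USP1/UAF1 and 45 min at RT.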

USP1 (construct USP1 (I-785, GG670, 671AA)/UAF1 (I-677)-Flag), sequence (O94782 whole entry G670A/G671A): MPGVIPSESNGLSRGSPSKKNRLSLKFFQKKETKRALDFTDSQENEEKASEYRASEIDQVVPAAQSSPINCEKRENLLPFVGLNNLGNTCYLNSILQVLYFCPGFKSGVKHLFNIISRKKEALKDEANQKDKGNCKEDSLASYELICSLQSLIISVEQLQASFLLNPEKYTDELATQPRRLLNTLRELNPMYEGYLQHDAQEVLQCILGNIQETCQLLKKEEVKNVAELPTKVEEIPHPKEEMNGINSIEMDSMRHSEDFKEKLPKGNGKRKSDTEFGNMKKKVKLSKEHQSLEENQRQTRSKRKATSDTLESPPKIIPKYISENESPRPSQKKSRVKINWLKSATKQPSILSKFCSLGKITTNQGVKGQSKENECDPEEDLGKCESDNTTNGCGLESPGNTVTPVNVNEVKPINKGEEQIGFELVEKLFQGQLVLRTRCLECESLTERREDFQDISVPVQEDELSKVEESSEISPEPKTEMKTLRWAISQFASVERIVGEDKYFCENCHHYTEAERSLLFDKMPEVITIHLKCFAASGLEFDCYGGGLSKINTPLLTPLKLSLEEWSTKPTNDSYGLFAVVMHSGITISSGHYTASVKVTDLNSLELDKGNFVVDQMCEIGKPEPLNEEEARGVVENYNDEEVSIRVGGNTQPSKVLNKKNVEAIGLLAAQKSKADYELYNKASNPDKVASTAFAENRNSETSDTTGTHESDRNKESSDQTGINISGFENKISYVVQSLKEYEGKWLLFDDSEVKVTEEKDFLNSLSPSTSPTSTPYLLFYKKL
USP1 (construct USP1 (I-785, GG670, 671AA)/UAF1 (I-677)-Flag), sequence (Q8TAF3 whole entry partner): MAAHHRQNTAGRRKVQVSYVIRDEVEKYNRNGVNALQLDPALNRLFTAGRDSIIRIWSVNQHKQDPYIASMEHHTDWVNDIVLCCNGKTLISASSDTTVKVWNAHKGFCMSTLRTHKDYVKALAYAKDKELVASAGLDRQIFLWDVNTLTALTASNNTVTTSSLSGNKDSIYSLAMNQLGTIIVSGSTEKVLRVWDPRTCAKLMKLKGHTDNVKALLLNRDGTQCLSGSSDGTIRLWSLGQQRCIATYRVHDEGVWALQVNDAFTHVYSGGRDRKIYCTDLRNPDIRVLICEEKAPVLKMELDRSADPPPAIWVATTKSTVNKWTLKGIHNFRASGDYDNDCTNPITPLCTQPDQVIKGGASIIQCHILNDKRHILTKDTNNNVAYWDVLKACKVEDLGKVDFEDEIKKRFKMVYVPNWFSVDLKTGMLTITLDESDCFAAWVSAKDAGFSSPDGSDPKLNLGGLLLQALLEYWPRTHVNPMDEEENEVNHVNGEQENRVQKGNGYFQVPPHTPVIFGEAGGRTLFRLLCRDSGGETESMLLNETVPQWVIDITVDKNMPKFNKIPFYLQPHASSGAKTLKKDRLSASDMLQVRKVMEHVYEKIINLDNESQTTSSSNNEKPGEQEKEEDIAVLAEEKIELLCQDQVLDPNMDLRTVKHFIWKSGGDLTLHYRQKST

Row | SMILES | pIC50
1 | CC(C)c1ncccc1-c1ncc2c(n1)n(Cc1ccc(-c3nc(C(F)(F)F)cn3C)cc1)c(=O)n2C1CS(=O)(=O)C1 [Compound I-121, 7-(1,1-dioxidothietan-3-yl)-2-(2-isopropylpyridin-3-yl)-9-(4-(1-methyl-4-(trifluoromethyl)-1H-imidazol-2-yl)benzyl)-7,9-dihydro-8H-purin-8-one] | 5.70 to 6.70
2 | CCOC(=O)c1cc(C)nn1-c1ccc(Cn2c(=O)[nH]c3cnc(-c4ccccc4C4CC4)nc32)cc1 [Compound I-99, ethyl 1-(4-((2-(2-cyclopropylphenyl)-8-oxo-7,8-dihydro-9H-purin-9-yl)methyl)phenyl)-3-methyl-1H-pyrazole-5-carboxylate] | > 7.30
3 | Cc1nc(S(=O)(=O)N(C)c2ccc(Cn3c(=O)n(C)c4cnc(-c5ccccc5C(C)C)nc43)cc2)cn1C [Compound I-458, N-(4-((2-(2-isopropylphenyl)-7-methyl-8-oxo-7,8-dihydro-9H-purin-9-yl)methyl)phenyl)-N,1,2-trimethyl-1H-imidazole-4-sulfonamide] | 5.70 to 6.70
4 | CC(C)c1ccccc1-c1ncc2[nH]c(=O)n(Cc3ccc(C(=O)NCc4cnn(C)c4)cc3)c2n1 [Compound I-361, 4-((2-(2-isopropylphenyl)-8-oxo-7,8-dihydro-9H-purin-9-yl)methyl)-N-((1-methyl-1H-pyrazol-4-yl)methyl)benzamide] | 5.70 to 6.70
5 | O=c1[nH]c2cnc(-c3ccccc3OC(F)F)nc2n1Cc1ccc(-n2ccc(F)n2)cc1 [Compound I-89, 2-(2-(difluoromethoxy)phenyl)-9-(4-(3-fluoro-1H-pyrazol-1-yl)benzyl)-7,9-dihydro-8H-purin-8-one] | 5.70 to 6.70
6 | CC(C)c1ccccc1-c1ncc2[nH]c(=O)n(Cc3ccc(-n4cccn4)cc3Cl)c2n1 [Compound I-162, 9-(2-chloro-4-(1H-pyrazol-1-yl)benzyl)-2-(2-isopropylphenyl)-7,9-dihydro-8H-purin-8-one] | 6.70 to 7.30
7 | Cn1cc(C(F)(F)F)nc1-c1ccc(Cn2c(=O)[nH]c3cnc(-c4cccnc4OCC4CCCO4)nc32)cc1 (stereo not shown) [Compound I-424, 9-(4-(1-methyl-4-(trifluoromethyl)-1H-imidazol-2-yl)benzyl)-2-(2-((tetrahydrofuran-2-yl)methoxy)pyridin-3-yl)-7,9-dihydro-8H-purin-8-one] | > 7.30
8 | CC(C)c1ccccc1-c1ncc2[nH]c(=O)n([C@@H](C)c3ccc(F)cc3)c2n1 [Compound I-179, (S)-9-(1-(4-fluorophenyl)ethyl)-2-(2-isopropylphenyl)-7,9-dihydro-8H-purin-8-one] | 6.70 to 7.30
9 | CC(C)Nc1ncccc1-c1ncc2[nH]c(=O)n(Cc3ccc(-c4nc(C(F)(F)F)cn4C)cc3)c2n1 [Compound I-313, 2-(2-(isopropylamino)pyridin-3-yl)-9-(4-(1-methyl-4-(trifluoromethyl)-1H-imidazol-2-yl)benzyl)-7,9-dihydro-8H-purin-8-one] | > 7.30
10 | CNC(=O)N1CCC(c2ccn(-c3ccc(Cn4c(=O)[nH]c5cnc(-c6ccccc6C(C)C)nc54)cc3)n2)CC1 [Compound I-480, 4-(1-(4-((2-(2-isopropylphenyl)-8-oxo-7,8-dihydro-9H-purin-9-yl)methyl)phenyl)-1H-pyrazol-3-yl)-N-methylpiperidine-1-carboxamide] | > 7.30
11 | COc1cc(C)n(-c2ccc(Cn3c(=O)n(C)c4cnc(-c5cccnc5C(C)C)nc43)cc2)n1 [Compound I-118, 2-(2-isopropylpyridin-3-yl)-9-(4-(3-methoxy-5-methyl-1H-pyrazol-1-yl)benzyl)-7-methyl-7,9-dihydro-8H-purin-8-one] | > 7.30
12 | CC(C)c1ccccc1-c1ncc2[nH]c(=O)n(Cc3ccccc3)c2n1 [Compound I-171, 9-benzyl-2-(2-isopropylphenyl)-7,9-dihydro-8H-purin-8-one] | 6.70 to 7.30
13 | CC(C)c1ccccc1-c1ncc2[nH]c(=O)n([C@H](C)c3ccc(-c4nc(C(F)(F)F)cn4C)cc3)c2n1 [Compound I-214, (R)-2-(2-isopropylphenyl)-9-(1-(4-(1-methyl-4-(trifluoromethyl)-1H-imidazol-2-yl)phenyl)ethyl)-7,9-dihydro-8H-purin-8-one] | > 7.30
14 | CC(C)c1ccccc1-c1ncc2[nH]c(=O)n(Cc3ccc(-c4ncco4)cc3)c2n1 [Compound I-169, 2-(2-isopropylphenyl)-9-(4-(oxazol-2-yl)benzyl)-7,9-dihydro-8H-purin-8-one] | > 7.30
15 | CC(C)c1ccccc1-c1ncc2[nH]c(=O)n([C@H](C)c3ccc(-c4nccn4C)cc3)c2n1 [Compound I-309, (R)-2-(2-isopropylphenyl)-9-(1-(4-(1-methyl-1H-imidazol-2-yl)phenyl)ethyl)-7,9-dihydro-8H-purin-8-one] | > 7.30
16 | Cc1nc(-c2ccc(Cn3c(=O)[nH]c4cnc(-c5ccccc5C(C)C)nc43)cc2)nn1C [Compound I-294, 9-(4-(1,5-dimethyl-1H-1,2,4-triazol-3-yl)benzyl)-2-(2-isopropylphenyl)-7,9-dihydro-8H-purin-8-one] | > 7.30

Row | SMILES | pIC50
17 | CC(C)c1ccccc1-c1ncc2[nH]c(=O)n(Cc3ccc(-c4nc(C(F)(F)F)cn4CCO)cc3)c2n1 [Compound I-506, 9-(4-(1-(2-hydroxyethyl)-4-(trifluoromethyl)-1H-imidazol-2-yl)benzyl)-2-(2-isopropylphenyl)-7,9-dihydro-8H-purin-8-one] | > 7.30
18 | CC(C)c1ccccc1-c1ncc2c(n1)n(Cc1ccc(NS(=O)(=O)c3ccn(C)n3)cc1)c(=O)n2C [Compound I-453, N-(4-((2-(2-isopropylphenyl)-7-methyl-8-oxo-7,8-dihydro-9H-purin-9-yl)methyl)phenyl)-1-methyl-1H-pyrazole-3-sulfonamide] | < 5.70
19 | CC(=O)N1CCC(c2ccn(-c3ccc(Cn4c(=O)[nH]c5cnc(-c6ccccc6C(C)C)nc54)cc3)n2)C1 (stereo not shown) [Compound I-467, 9-(4-(3-(1-acetylpyrrolidin-3-yl)-1H-pyrazol-1-yl)benzyl)-2-(2-isopropylphenyl)-7,9-dihydro-8H-purin-8-one] | 6.70 to 7.30
20 | CC(C)c1ccccc1-c1ncc2[nH]c(=O)n(Cc3ccc(-n4c(=O)ccn4C)cc3)c2n1 [Compound I-205, 2-(2-isopropylphenyl)-9-(4-(2-methyl-5-oxo-2,5-dihydro-1H-pyrazol-1-yl)benzyl)-7,9-dihydro-8H-purin-8-one] | 6.70 to 7.30
21 | Cc1noc(C)c1-c1ccc(Cn2c(=O)[nH]c3cnc(-c4ccccc4C(C)C)nc32)cc1 [Compound I-253, 9-(4-(3,5-dimethylisoxazol-4-yl)benzyl)-2-(2-isopropylphenyl)-7,9-dihydro-8H-purin-8-one] | 5.70 to 6.70
22 | COCC1(N(C)C(=O)c2ccc(Cn3c(=O)[nH]c4cnc(-c5ccccc5C(C)C)nc43)cc2)CC1 [Compound I-391, 4-((2-(2-isopropylphenyl)-8-oxo-7,8-dihydro-9H-purin-9-yl)methyl)-N-(1-(methoxymethyl)cyclopropyl)-N-methylbenzamide] | > 7.30
23 | CC(C)c1ccccc1-c1ncc2c(n1)n(Cc1ccc(-c3ncc[nH]3)cc1)c(=O)n2C [Compound I-529, 9-(4-(1H-Imidazol-2-yl)benzyl)-2-(2-isopropylphenyl)-7-methyl-7,9-dihydro-8H-purin-8-one] | 6.70 to 7.30
24 | CC(C)c1ncccc1-c1ncc2c(n1)n(Cc1ccc(-c3nc(C(F)(F)F)cn3C)cc1)c(=O)n2C [Compound I-105, 2-(2-Isopropylpyridin-3-yl)-7-methyl-9-(4-(1-methyl-4-(trifluoromethyl)-1H-imidazol-2-yl)benzyl)-7,9-dihydro-8H-purin-8-one] | > 7.30
25 | CC(C)c1ncc(F)cc1-c1ncc2c(n1)n(Cc1ccc(-c3nc(C(F)(F)F)cn3C)cc1)c(=O)n2C [Compound I-69, 2-(5-fluoro-2-isopropylpyridin-3-yl)-7-methyl-9-(4-(1-methyl-4-(trifluoromethyl)-1H-imidazol-2-yl)benzyl)-7,9-dihydro-8H-purin-8-one] | > 7.30
26 | CC(C)c1ccccc1-c1ncc2[nH]c(=O)n(Cc3ccc(-n4cc(C5CC5)nn4)cc3)c2n1 [Compound I-343, 9-(4-(4-cyclopropyl-1H-1,2,3-triazol-1-yl)benzyl)-2-(2-isopropylphenyl)-7,9-dihydro-8H-purin-8-one] | 6.70 to 7.30
27 | CC(=O)N1CCC(c2cn(C)c(-c3ccc(Cn4c(=O)[nH]c5cnc(-c6ccccc6C(C)C)nc54)cc3)n2)CC1 [Compound I-472, 9-(4-(4-(1-acetylpiperidin-4-yl)-1-methyl-1H-imidazol-2-yl)benzyl)-2-(2-isopropylphenyl)-7,9-dihydro-8H-purin-8-one] | > 7.30
28 | CC(C)c1ncccc1-c1ncc2c(n1)n(Cc1ccc(-c3nc(C(F)(F)F)cn3C3CC3)cc1)c(=O)n2C [Compound I-114, 9-(4-(1-cyclopropyl-4-(trifluoromethyl)-1H-imidazol-2-yl)benzyl)-2-(2-isopropylpyridin-3-yl)-7-methyl-7,9-dihydro-8H-purin-8-one] | > 7.30
29 | CC(O)c1ccccc1-c1ncc2[nH]c(=O)n(Cc3ccc(-c4nc(C(F)(F)F)cn4C)cc3)c2n1 (stereo not shown) [Compound I-544, 2-(2-(1-Hydroxyethyl)phenyl)-9-(4-(1-methyl-4-(trifluoromethyl)-1H-imidazol-2-yl)benzyl)-7,9-dihydro-8H-purin-8-one] | 6.70 to 7.30
30 | Cc1cc(C)n(-c2ccc([C@@H](C)n3c(=O)[nH]c4cnc(-c5ccccc5C(C)C)nc43)cc2)n1 [Compound I-190, (R)-9-(1-(4-(3,5-dimethyl-1H-pyrazol-1-yl)phenyl)ethyl)-2-(2-isopropylphenyl)-7,9-dihydro-8H-purin-8-one] | > 7.30
31 | CCc1ccccc1-c1ncc2[nH]c(=O)n(Cc3ccc(-n4cccn4)cc3)c2n1 [Compound I-27, 9-(4-(1H-pyrazol-1-yl)benzyl)-2-(2-ethylphenyl)-7,9-dihydro-8H-purin-8-one] | 6.70 to 7.30
